Series [1] relates to Norovirus. Nature of the series: Antiviral activity against Norovirus prototypic GI.1 infected in human HG23 cells assessed as inhibition of viral RNA replication after 4 days by RT-qPCR method. Type of series: functional, organism-based, Norovirus GI.1. In general terms: In qPCR the cycle at which signal appears reflects the starting amount.
For another series, the system named is Vero. Kind of series: Cytotoxicity against African green monkey Vero cells assessed as reduction in cell viability after 3 days by hemocytometer. Type of series: cell-based. The conditions noted are these: chlorocebus sabaeus, 72 h.
The subject of the next series is CCRF-CEM. Kind of series: Cytotoxicity against human CEM cells assessed as reduction in cell viability after 6 days by trypan blue exclusion assay. The settings on record: 144 h. Type of series: cell-based.
The next series addresses T1, Protease (Norovirus Hu/GII.4-2002/WeertE022/2002/NL, UniProt G1FEK8).
T1 sequence (G1FEK8 whole entry): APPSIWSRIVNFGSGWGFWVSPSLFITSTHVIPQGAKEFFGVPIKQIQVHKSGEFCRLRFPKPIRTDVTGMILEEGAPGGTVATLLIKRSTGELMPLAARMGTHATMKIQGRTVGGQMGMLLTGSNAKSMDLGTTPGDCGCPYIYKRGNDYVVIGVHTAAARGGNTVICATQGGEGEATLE
Nature of the series: (§1) Inhibition of Norovirus prototypic GII.4 3CL protease using HiLyte Fluor 488-labelled DFELQGPK as substrate incubated for 90 mins measured every mins for 20 mins by FRET assay. On the set-up: species or system Norovirus GII.4.

The next series has as its system PBMC. Kind of series: Cytotoxicity against human PBMC assessed as reduction in cell viability after 6 days by trypan blue exclusion assay. Type of series: cell-based. The conditions noted are these: 144 h.
The target of series [2] is Nonstructural polyprotein (Norovirus Hu/GI/10360/2010/VNM) (UniProt I1U3K2). Nature of the series: (§2) Inhibition of Norovirus prototypic GI.1 3CL protease using HiLyte Fluor 488-labelled DFELQGPK as substrate incubated for 90 mins measured every mins for 20 mins by FRET assay. The settings on record: Norovirus GI.1.
Sequence of Nonstructural polyprotein (Norovirus Hu/GI/10360/2010/VNM) (I1U3K2 as listed by the source): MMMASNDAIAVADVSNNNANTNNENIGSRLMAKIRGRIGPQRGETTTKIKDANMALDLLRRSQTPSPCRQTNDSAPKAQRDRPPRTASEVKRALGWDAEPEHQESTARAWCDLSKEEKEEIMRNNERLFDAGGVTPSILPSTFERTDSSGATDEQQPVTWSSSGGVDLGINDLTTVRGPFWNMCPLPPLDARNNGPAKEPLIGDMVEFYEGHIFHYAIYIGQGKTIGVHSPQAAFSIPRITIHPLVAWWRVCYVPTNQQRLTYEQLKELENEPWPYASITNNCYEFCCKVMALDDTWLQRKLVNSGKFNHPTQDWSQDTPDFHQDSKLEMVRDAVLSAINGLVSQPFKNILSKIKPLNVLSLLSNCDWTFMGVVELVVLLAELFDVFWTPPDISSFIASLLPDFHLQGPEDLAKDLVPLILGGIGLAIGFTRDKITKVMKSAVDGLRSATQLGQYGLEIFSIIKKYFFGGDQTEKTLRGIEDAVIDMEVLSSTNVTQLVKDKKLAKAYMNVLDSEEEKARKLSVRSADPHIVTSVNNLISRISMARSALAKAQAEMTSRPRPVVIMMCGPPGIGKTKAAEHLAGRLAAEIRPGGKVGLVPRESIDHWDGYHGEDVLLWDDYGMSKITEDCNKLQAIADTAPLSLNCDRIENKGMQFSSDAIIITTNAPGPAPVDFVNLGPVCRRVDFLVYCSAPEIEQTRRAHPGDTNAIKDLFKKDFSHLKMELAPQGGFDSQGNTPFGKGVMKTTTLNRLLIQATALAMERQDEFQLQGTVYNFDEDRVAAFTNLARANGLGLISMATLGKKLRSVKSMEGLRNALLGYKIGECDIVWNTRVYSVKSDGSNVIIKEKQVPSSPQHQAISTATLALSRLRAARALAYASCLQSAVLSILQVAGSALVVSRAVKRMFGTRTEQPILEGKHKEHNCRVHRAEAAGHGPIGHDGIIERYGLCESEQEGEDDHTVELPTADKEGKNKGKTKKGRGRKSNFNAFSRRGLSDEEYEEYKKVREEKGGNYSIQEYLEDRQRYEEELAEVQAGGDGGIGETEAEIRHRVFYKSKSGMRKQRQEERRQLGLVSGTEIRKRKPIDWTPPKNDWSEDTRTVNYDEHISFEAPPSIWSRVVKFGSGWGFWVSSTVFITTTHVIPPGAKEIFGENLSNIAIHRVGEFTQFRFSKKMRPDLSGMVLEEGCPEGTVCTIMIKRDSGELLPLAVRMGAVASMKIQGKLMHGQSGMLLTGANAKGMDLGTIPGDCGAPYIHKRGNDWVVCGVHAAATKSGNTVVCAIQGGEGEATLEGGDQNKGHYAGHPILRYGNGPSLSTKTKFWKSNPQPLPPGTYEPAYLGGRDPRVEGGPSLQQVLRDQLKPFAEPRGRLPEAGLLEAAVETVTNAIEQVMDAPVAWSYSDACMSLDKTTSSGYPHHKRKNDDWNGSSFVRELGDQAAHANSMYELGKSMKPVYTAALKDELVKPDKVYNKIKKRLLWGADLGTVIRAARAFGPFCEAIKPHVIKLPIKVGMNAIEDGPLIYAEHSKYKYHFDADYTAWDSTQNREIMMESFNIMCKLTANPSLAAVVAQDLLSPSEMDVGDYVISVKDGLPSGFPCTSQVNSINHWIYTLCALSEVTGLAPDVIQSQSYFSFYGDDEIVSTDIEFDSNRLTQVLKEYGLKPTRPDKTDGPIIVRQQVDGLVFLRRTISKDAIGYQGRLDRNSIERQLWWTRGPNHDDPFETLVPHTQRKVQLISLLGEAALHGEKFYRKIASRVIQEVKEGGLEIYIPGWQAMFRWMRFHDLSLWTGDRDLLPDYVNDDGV
Series [3] deals with Nonstructural polyprotein (Norovirus Hu/GI/10360/2010/VNM, UniProt I1U3K2). The series is described as §2. Also noted: species or system Norovirus GI.1.
Sequence of Nonstructural polyprotein (I1U3K2 whole entry): as the sequence (I1U3K2 as listed by the source) above
Series [4] has as its target T2, Protease (Norovirus Hu/GII.4-2002/WeertE022/2002/NL) (UniProt G1FEK8).
T2 sequence (whole entry): T1 sequence (G1FEK8 whole entry)
Described as §1. The conditions noted are these: Norovirus GII.4.

For a further series, the system named is Huh-7. Nature of the series: Cytotoxicity against human HuH7 cells assessed as reduction in cell viability. Type of series: cell-based.
Series [5] has as its target T2, Protease (Norovirus Hu/GII.4-2002/WeertE022/2002/NL). Nature of the series: Inhibition of Norovirus prototypic GII.4 3CL protease using HiLyte Fluor 488-labelled DFELQGPK as substrate incubated for 90 mins measured every mins for 20 mins by FRET assay relative to control. The settings on record: Norovirus GII.4.
The test system of series [6] is Norovirus. Nature of the series: Antiviral activity against Norovirus prototypic GI.1 infected in human HG23 cells assessed as inhibition of viral RNA replication at 10 uM after 4 days by RT-qPCR method relative to control. The settings on record: HG23, 96 h. Type of series: functional, Norovirus GI.1.
The mark [7] stands for this setting: Norovirus, HG23, 96 h, read-out: EC50.

For `CC(C)C[C@H](NC(=O)[C@H](Cc1cccc2ccccc12)NC(=O)OCc1ccccc1)C(=O)N[C@H](CCl)C[C@@H]1CCCNC1=O`, the EC50 in the series with Norovirus [1] (setting [7]) was over 10000 nM. Besides, the CC50 in the series with Vero was 51.7 µM; in the series on CCRF-CEM, 26.6 µM; in the series with PBMC, 75 µM. This molecule displayed an IC50 at Protease of over 100000 nM.
Regarding `CC(C)C[C@H](NC(=O)[C@H](Cc1cccc2ccccc12)NC(=O)OCc1ccccc1)C(=O)N[C@H](C=O)C[C@@H]1CCNC1=O`, the IC90 in series [2] was 248 nM; in series [4], 0.205 µM. Besides, the results for the half-maximal inhibitory concentration (IC50) (in series [3]; against Protease) were 32 nM and 60 nM, respectively. In the series on Norovirus [1] (Norovirus, HG23, 96 h), the EC90 was 8.36 µM. Moreover, in the series with Norovirus [1] (setting [7]), the EC50 was determined as 1130 nM. For the same molecule, the half-maximal cytotoxic concentration (CC50) with Vero is over 100 µM; in the series on CCRF-CEM, 39.5 µM; in the series on Huh-7 it was over 10 µM; in the series on PBMC, 28.4 µM.
On to `CC(C)C[C@H](NC(=O)[C@H](Cc1cccc2ccccc12)NC(=O)OCc1ccccc1)C(=O)N[C@H](CO)CNC(=O)N1CCC1`, for which the IC50 (in series [3]; against Protease) was over 100000 nM in each case. In addition, the EC50 in the series with Norovirus [1] (setting [7]) was over 10000 nM. Besides, the CC50 in the series on Vero is over 100 µM; in the series with CCRF-CEM, 2.2 µM; in the series on Huh-7 it was 33 µM; in the series with PBMC it was 21.2 µM. This molecule showed an inhibition in series [5] of 4%.
As to `CC(C)C[C@H](NC(=O)[C@H](Cc1cccc2ccccc12)NC(=O)OCc1ccccc1)C(=O)N[C@@H](C[C@@H]1CCCNC1=O)C(O)S(=O)(=O)O` (some centres not stated), the IC90 in [2] was 2240 nM; in series [4] it was 14 µM. Besides, the IC50 is 654 nM in series [3] and 2630 nM against Protease. Also, in the series with Norovirus [1] (Norovirus, HG23, 96 h), the EC90 came to 2.45 µM. In addition, the concentration for a half-maximal effect (EC50) in the series on Norovirus [1] (setting [7]) came to 390 nM. Moreover, the CC50 was over 100 µM in the series on Vero, 18.3 µM in the series with CCRF-CEM, 11.2 µM in the series on Huh-7 and 43.8 µM with PBMC.
Consider `CC(C)C[C@H](NC(=O)[C@H](Cc1cccc2ccccc12)NC(=O)OCc1ccccc1)C(=O)N[C@H](C=O)C[C@@H]1CCCNC1=O`, for which the IC90 was 155 nM in series [2] and 1.19 µM in [4]. Besides, the IC50 in series [3] came to 80 nM; at Protease it was 150 nM. Moreover, the EC90 in the series with Norovirus [1] (Norovirus, HG23, 96 h) turned out to be 0.92 µM. For the same molecule, the EC50 in the series with Norovirus [1] (setting [7]) worked out at 420 nM. The CC50 in the series with Vero amounted to 19.8 µM; in the series on CCRF-CEM, 31.6 µM; in the series with Huh-7, 25.7 µM; in the series with PBMC, 23.6 µM.
`CC(C)C[C@H](NC(=O)[C@H](Cc1cccc2ccccc12)NC(=O)OCc1ccccc1)C(=O)N[C@H](CS)C[C@@H]1CCNC1=O`: the IC50 (in series [3]; on Protease) was over 10000 nM each time. Also, in the series with Norovirus [1] (setting [7]), the EC50 is over 10000 nM. Besides, the half-maximal cytotoxic concentration (CC50) was over 100 µM with Vero, over 100 µM in the series with CCRF-CEM, 93.5 µM with Huh-7 and over 100 µM in the series with PBMC.
Turning to `CC(C)C[C@H](NC(=O)[C@H](Cc1cccc2ccccc12)NC(=O)OCc1ccccc1)C(=O)N[C@H](CO)Cn1ccnn1`, the IC50 in series [3] was over 1000 nM; at Protease it was over 10000 nM. Also, the inhibition at 10 µM with Norovirus [6] worked out at 99%. Besides, the EC50 entry in the series with Norovirus [1] is “Nd(Toxic)”. Further, the CC50 in the series on Vero was 3.2 µM; in the series with CCRF-CEM, 0.3 µM; with Huh-7 it was 2.7 µM; with PBMC, 1.9 µM.
As for `CC(C)C[C@H](NC(=O)[C@H](Cc1cccc2ccccc12)NC(=O)OCc1ccccc1)C(=O)NC(C[C@@H]1CCNC1=O)C1CO1` (some centres not stated), the IC50 (in [3]; on Protease) was over 100000 nM each time. The EC50 in the series with Norovirus [1] (setting [7]) is over 10000 nM. Also, the CC50 in the series on Vero was 30.4 µM; with CCRF-CEM, 14 µM; with PBMC, 15.7 µM.
On to `CC(C)C[C@H](NC(=O)[C@H](Cc1cccc2ccccc12)NC(=O)OCc1ccccc1)C(=O)NC(/C=C/C=O)C[C@@H]1CCNC1=O` (some centres not stated), for which the concentration for half-maximal inhibition (IC50) in series [3] is over 10000 nM; at Protease, over 100000 nM. Moreover, the EC90 with Norovirus [1] (Norovirus, HG23, 96 h) was over 10 µM. Further, the EC50 in the series with Norovirus [1] (setting [7]) was 4700 nM. The half-maximal cytotoxic concentration (CC50) was found to be 77.7 µM in the series with Vero, 1.9 µM in the series on CCRF-CEM and 3.9 µM in the series on PBMC.
For `CC(C)C[C@H](NC(=O)[C@H](Cc1cccc2ccccc12)NC(=O)OCc1ccccc1)C(=O)N[C@H](/C=C(\C#N)C(N)=O)C[C@@H]1CCCNC1=O`, the IC90 amounted to 1700 nM in [2] and 3.6 µM in series [4]. Besides, the results for the 50% inhibitory concentration (IC50) (in series [3]; against Protease) were 593 nM and 1170 nM, respectively. For the same molecule, the EC90 with Norovirus [1] (Norovirus, HG23, 96 h) was 7.82 µM. The EC50 in the series with Norovirus [1] (setting [7]) was found to be 750 nM. Further, the CC50 is over 100 µM with Vero, 9.1 µM with CCRF-CEM, 8.4 µM in the series on Huh-7 and 45.4 µM in the series on PBMC.
For the molecule `CC(C)C[C@H](NC(=O)[C@H](Cc1cccc2ccccc12)NC(=O)OCc1ccccc1)C(=O)N[C@H](CO)CCC(=O)N1CCC1`, the figures for the half-inhibitory concentration (IC50) (in [3]; against Protease) were over 1000 nM and 502 nM, respectively. For the same molecule, in the series on Norovirus [1] (Norovirus, HG23, 96 h), the EC90 worked out at 17.3 µM. In addition, the EC50 with Norovirus [1] (setting [7]) came to 6190 nM. In addition, the CC50 was 8.6 µM with Vero, 2.2 µM with CCRF-CEM and 18.4 µM in the series with PBMC. In [4], this molecule returned an IC90 of 5.54 µM.
In the case of `CC(C)C[C@H](NC(=O)[C@H](Cc1cccc2ccccc12)NC(=O)OCc1ccccc1)C(=O)N[C@@H](C[C@@H]1CCCNC1=O)C(=O)C(F)(F)F`, the IC90 turned out to be 2240 nM in [2] and 14 µM in series [4]. Further, the IC50 in series [3] stood at 654 nM; on Protease, 2630 nM. Besides, in the series on Norovirus [1] (Norovirus, HG23, 96 h), the EC90 was 2.45 µM. Also, the EC50 in the series on Norovirus [1] (setting [7]) is 390 nM. The CC50 is over 100 µM in the series with Vero, 18.3 µM in the series with CCRF-CEM, 11.2 µM with Huh-7 and 43.8 µM in the series on PBMC.
As for `CC(C)C[C@H](NC(=O)[C@H](Cc1cccc2ccccc12)NC(=O)OCc1ccccc1)C(=O)NC(C[C@@H]1CCNC1=O)C1OC1S(C)(=O)=O` (some centres not stated), the IC50 was over 10000 nM in series [3] and 30000 nM at Protease. Also, the EC90 in the series on Norovirus [1] (Norovirus, HG23, 96 h) is over 20 µM. For the same molecule, the EC50 in the series on Norovirus [1] (setting [7]) was determined as 4330 nM. Further, the CC50 in the series on Vero is over 100 µM; with CCRF-CEM, 63.9 µM; in the series on PBMC, over 100 µM. The molecule further displayed an IC90 in [4] of over 100 µM.

For orientation: EC50 means the concentration that produces a half-maximal response. By CC50 is commonly meant the concentration at which the toxic effect on the cells reaches its halfway point. As usually defined, the IC50 is the concentration needed to halve the response being measured. The IC90 is the point of the concentration-response curve where the effect stands at 90%. A word on the EC90: it is the concentration needed for an effect of 90%. A word on the inhibition: it is the share of the control response that was lost under treatment.
